{"source": "patent US8007782B2", "about": "“Combination bacteriolytic therapy for the treatment of tumors” (priority 2003, dated 2011)", "key": {"[1]": {"system": "HCT116 human colorectal cancer cells", "assay": "Tumorigenicity assay, HCT116 xenografts in nude mice", "type": "in vivo", "details": "for Effect with C. novyi-NT / Effect alone: nude mice; for Effect alone: agent alone", "text": "(§1) All animal protocols were designed in accordance with the Guide for the Care and Use of Laboratory Animals (NIH Publication 86-23) and were approved by the Johns Hopkins University Institutional Animal Care and Use Committee. Six to eight week old mice were implanted subcutaneously on one flank with 3 to 6 million cancer cells. Establishment of tumors of 150 to 500 mm3 took 8 to 21 days, depending on the cell type. C. novyi-NT spores (300×106) and anti-microtubule agents were generally administered by a single intravenous injection through the tail vein in a total volume of 300 to 500 ul phosphate-buffered saline (PBS). Quantitative assessment of tumor growth was performed by measuring subcutaneous tumor grafts (major and minor axis) using electronic calipers. Tumor volume was calculated using the equation: length×width2×0.5. Progression free survival was defined as the length of time following treatment before any increase in tumor volume was observed. Mice were considered “cured” if no tumor was evident three months after treatment. Animals were weighed at least twice a week and carefully observed for signs of toxicity every day for the first week following treatment and then twice a week thereafter. At least five mice were used for each treatment arm described in the Experimental Results.\nThe timing, route, and dose of agents are critical for the success of any experimental therapy. When two agents are combined, the number of variables that must be tested increases exponentially. To simplify interpretation of the comparisons between various anti-microtubule agents, pilot studies with representative drugs were performed.\nEighteen agents known to interact with microtubules were each tested in this manner in nude mice harboring xenografts of HCT116 human colorectal cancer cells. At least five mice harboring tumors of 150 to 500 mm3 in size were used for each experimental arm. Two classes of responses were noted. One type of response was characterized by a rapid hemorrhagic necrosis, observed only with agents that inhibited microtubule […] (FIG. 1A, B). The other type of response was characterized by a slow regression, observed with agents that stabilized microtubules (FIG. 2A, B)."}, "[2]": {"system": "tumor blood flow in HCT116 xenografts", "assay": "Assessment of blood perfusion (Hoechst 33342) in HCT116 xenografts", "type": "in vivo, mice", "details": "HTI-286 1.7 mg/kg or docetaxel 50 mg/kg iv, 3 and 24 hr after treatment", "experimental": "Three or 24 hours after treatment, mice were intravenously injected with Hoechst 33342 (40 mg/kg) and euthanized two minutes later. Tumors were cryosectioned and viewed by fluorescence microscopy after counter-staining with acridine orange (AO). Endothelial cells are stained blue when they have taken up the Hoechst 33342 dye. Adjacent sections were stained with MECA-32 monoclonal antibody, a vascular endothelium-specific marker. Arrows point towards normal blood vessels unaffected by HTI-286 treatment in overlying skin.\nMice bearing HCT116 xenografts of 300 to 500 mm3 were injected intravenously with anti-microtubule agents. At various times thereafter, they were intravenously injected with Hoechst 33342 (40 mg/kg), then euthanized two minutes later by CO2 narcosis. Tumors were fixed in Tissue-Tek OTC compound (Sakura Finetek, Torrance, Calif.) and stored at −80° C. Frozen sections 10 microns in thickness were prepared with a Leica Microsystems cryostat and counterstained with acridine orange, 7.5 ug/ml, in PBS for 5 minutes. […] At least three sections of each of three tumors, representing middle and distal parts of the tumor, were examined under fluorescence microscopy for each agent tested, and representative results are illustrated in the figures. […]"}, "[3]": {"system": "Glucose Transporter-1 (Glut-1)", "assay": "Immunohistochemistry for Glut-1 (hypoxia marker) in HCT116 xenografts", "type": "in vivo, mice", "details": "HTI-286 1.7 mg/kg or docetaxel 50 mg/kg iv, 6 hr after treatment", "experimental": "Mice were euthanized six hours after treatment. Tumors were sectioned and H & E stained. Adjacent sections were stained for Glut-1 expression, a marker for hypoxia. Cells positive for Glut-1 appear brown. Arrows indicate examples of hemorrhage.\nParaffin sections were deparaffinized, incubated with proteinase K (Invitrogen), heated at 95° C. for 20 min in citrate buffer (pH 6), and treated with peroxidase blocking reagent (Dako). Sections were incubated with a monoclonal antibody against Glucose Transporter-1 (Glut-1, Dako) followed by a biotin-conjugated secondary antibody (Pierce). A third layer consisting of HRP-conjugated anti-biotin (DAKO) was followed by diaminobenzidine (Sigma) staining. Sections were counterstained with eosin.\nTwo independent tests of this hypothesis were performed. First, we directly assessed hypoxia within tumors by staining with an antibody to Glucose Transporter-1 (Glut-1). Glut-1 has been extensively studied and shown to be specifically expressed only in hypoxic regions (Airley et al., 2001)."}, "[4]": {"assay": "Mortality following COBALT", "type": "in vivo, nude mice", "details": "deaths within one week, pooled xenograft models", "text": "as §1\n(§2) This toxicity was observed only when the combination of C. novyi-NT spores and the drugs was administered and not with either the bacteria or the drugs alone. […] Though major tumor regressions were common, few mice died as a result of therapy (Table 2) No deaths occurred after treatment with the microtubule stabilizers plus C. novyi-NT, while 4% to 8% of mice treated with microtubule destabilizers plus C. novyi-NT died. The only other toxicity observed was transient weight loss (Table 3). Mice treated with the drugs alone lost ˜5 to 10% of their body weight within 7 days, while weight loss after treatment with C. novyi-NT plus these drugs varied from 8% to 18%. All weights recovered to pre-treatment levels within two weeks."}, "Weight loss after COBALT": {"assay": "Weight loss after COBALT", "type": "in vivo, nude mice", "details": "drug dose 1.7 mg/kg; maximum average weight loss relative to weight one day prior to treatment; HCT116 xenografts", "text": "as §1, §2"}}, "data": [{"molecule": "CN[C@H](C(=O)N[C@H](C(=O)N(C)[C@H](/C=C(\\C)C(=O)O)C(C)C)C(C)(C)C)C(C)(C)c1ccccc1", "note": "[HTI-286, N,β,β-trimethyl-L-phenylalanyl-N^1-[(1S,2E)-3-carboxy-1-isopropylbut-2-enyl]-N^1,3-dimethyl-L-valinamide]", "values": [{"measurement": "Effect with C. novyi-NT", "setting": "[1]; 0.5 mg/kg × 1 (iv) with 3×108 C. novyi-NT spores iv", "value": "+"}, {"measurement": "Effect with C. novyi-NT", "setting": "[1]; 1.0 mg/kg × 1 (iv) with 3×108 C. novyi-NT spores iv", "value": "+"}, {"measurement": "Effect with C. novyi-NT", "setting": "[1]; 1.5 mg/kg × 1 (iv) with 3×108 C. novyi-NT spores iv", "value": "++ (10% to 50% shrinkage in tumor volume relative to pre-treatment size)"}, {"measurement": "Effect with C. novyi-NT", "setting": "[1]; 1.7 mg/kg × 1 (iv) with 3×108 C. novyi-NT spores iv", "value": "++++ (>20% cures)"}, {"measurement": "Effect with C. novyi-NT", "setting": "[1]; 1.9 mg/kg × 1 (iv) with 3×108 C. novyi-NT spores iv", "value": "++++ (>20% cures)"}, {"measurement": "Effect with C. novyi-NT", "setting": "[1]; 2 (2.0) mg/kg × 1 (iv) with 3×108 C. novyi-NT spores iv", "value": "++++ (>20% cures)"}, {"measurement": "Effect alone", "setting": "[1]; 0.5 mg/kg × 1 (iv)", "value": 0}, {"measurement": "Effect alone", "setting": "[1]; 1.0 mg/kg × 1 (iv)", "value": 0}, {"measurement": "Effect alone", "setting": "[1]; 1.5 mg/kg × 1 (iv)", "value": "+"}, {"measurement": "Effect alone", "setting": "[1]; 1.7 mg/kg × 1 (iv)", "value": "+"}, {"measurement": "Effect alone", "setting": "[1]; 1.9 mg/kg × 1 (iv)", "value": "++ (10% to 50% shrinkage in tumor volume relative to pre-treatment size)"}, {"measurement": "Effect alone", "setting": "[1]; 2 (2.0) mg/kg × 1 (iv)", "value": "++ (10% to 50% shrinkage in tumor volume relative to pre-treatment size)"}, {"measurement": "hemorrhagic necrosis", "setting": "[1]; single treatment", "value": "modest amount of hemorrhagic necrosis"}, {"measurement": "blood flow to the tumors (Hoechst 33342 labelling)", "setting": "[2]", "value": "almost completely inhibited"}, {"measurement": "Glut-1 expression (hypoxia marker) in tumors", "setting": "[3]", "value": "large amounts of Glut-1"}, {"measurement": "# dead (treatment-related deaths)", "setting": "[4]; drug dose 1.7 mg/kg", "value": 3}, {"measurement": "dead (%)", "setting": "[4]; drug dose 1.7 mg/kg", "value": 2.9, "unit": "%"}, {"measurement": "# dead (treatment-related deaths)", "setting": "[4]; drug dose 1.9 mg/kg", "value": 3}, {"measurement": "dead (%)", "setting": "[4]; drug dose 1.9 mg/kg", "value": 5.4, "unit": "%"}, {"measurement": "# dead (treatment-related deaths)", "setting": "[4]; drug dose 2.0 mg/kg", "value": 5}, {"measurement": "dead (%)", "setting": "[4]; drug dose 2.0 mg/kg", "value": 10.6, "unit": "%"}, {"measurement": "Weight Loss (%)", "setting": "Weight loss after COBALT", "value": 11.4, "unit": "%"}]}]}
